Assay results as given in ChEMBL document CHEMBL4184171, “Design and synthesis of a biaryl series as inhibitors for the bromodomains of CBP/P300” (Bioorg Med Chem Lett, 2018).
Converted amounts (≈) assume the structure as drawn.

Tests used:
[1] = in vivo; details: CD-1, mouse, iv, 1 mg/kg
Description: Volume of distribution at steady state in CD-1 mouse at 1 mg/kg, iv or 5 mg/kg, po

[2] = target: Bromodomain-containing protein 4 (Homo sapiens, UniProt O60885)
Description: Inhibition of BRD4 bromodomain 1 (unknown origin) by TR-FRET assay

[3] = in vitro; details: rat, hepatocytes
Description: Hepatic clearance in rat hepatocytes

[4] = in vitro; details: mouse, plasma
Description: Protein binding in mouse plasma

[5] = in vivo; details: CD-1, mouse
Description: Half life in CD-1 mouse at 1 mg/kg, iv or 5 mg/kg, po

[6] = in vitro; details: mouse, microsomes
Description: Clearance in mouse liver microsomes

[7] = in vitro; details: human, hepatocytes
Description: Hepatic clearance in human hepatocytes

[8] = in vitro; details: dog, MDCK
Description: Apparent permeability from apical to basolateral side in MDCK cells

[9] = in vitro; details: rat, microsomes
Description: Clearance in rat liver microsomes

[10] = in vitro; details: mouse, hepatocytes
Description: Hepatic clearance in mouse hepatocytes

[11] = in vitro; details: rat, plasma
Description: Protein binding in rat plasma

[12] = in vivo; details: CD-1, mouse, iv, 1 mg/kg; remark: listed apart in the source
Description: Clearance in CD-1 mouse at 1 mg/kg, iv or 5 mg/kg, po

[13] = in vitro; details: human, plasma
Description: Protein binding in human plasma

[14] = physchem; details: buffer, pH 7.4
Description: Kinetic solubility in PBS buffer at pH 7.4

[15] = in vivo; details: CD-1, mouse, po, 5 mg/kg
[16] = in vitro; details: human, microsomes
Description: Clearance in human liver microsomes

| IC50 [2] [µM] | CLhep predicted [6] [mL/min/kg] | CLhep predicted [9] [mL/min/kg] | CLhep predicted [16] [mL/min/kg] | Structure (SMILES) | other results |
| --- | --- | --- | --- | --- | --- |
| 2.5 | 20 | 18 | 8 to 8.3 | CC(=O)N1CCc2c(c(-c3cccc4cc(-c5cnn(C)c5)ncc34)nn2C2CCOCC2)C1 | Vd [1]: 1.3 L/kg; CLhep predicted [3]: 14 mL/min/kg; fraction unbound [4]: 0.15; half-life [5]: 1.6 h; CLhep predicted [7]: < 6 mL/min/kg; Papp A→B [8]: 10 ×10⁻⁶ cm/s; CLhep predicted [10]: < 21 mL/min/kg; fraction unbound [11]: 0.24; clearance [12]: 11 mL/min/kg; fraction unbound [13]: 0.3; solubility kinetic [14]: 92 µM (≈ 42 µg/mL); bioavailability [15]: 67% |
| > 20 |  |  |  | CC(=O)N1CCc2c(c(-c3cncc4ccccc34)nn2C2CCOCC2)C1 |  |
| 3.8 | 32 | 45 | 11 | CC(=O)N1CCc2c(c(-c3cccc4cc(-c5cn(C)nc5C#N)ncc34)nn2C2CCOCC2)C1 |  |
| > 20 |  |  |  | CC(=O)N1CCc2c(c(-c3cc(CO)cc4ccncc34)nn2C2CCOCC2)C1 |  |
| 11 |  |  |  | COc1ccc(-c2nn(C3CCOCC3)c3c2CN(C(C)=O)CC3)c2cnccc12 |  |
| > 20 |  |  |  | CC(=O)N1CCc2c(c(-c3cccc4c[nH]c(=O)cc34)nn2C2CCOCC2)C1 |  |
